≈ marks a conversion by molar mass, not a printed value.
Test system: Streptococci
Assay: Minimum inhibitory concentration, microdilution broth method, streptococci
Format: cell-based
Details: S. pneumo GC 1894; Mueller-Hinton broth with 5% horse blood, 18-22 hours at 35° C.
Protocol: (§1) Evaluation of the Minimum Inhibitory Concentration of Test Compounds Against A Variety of Bacterial Strains
(§2) In this evaluation the minimal inhibitory concentration (MIC) of test compounds against Gram positive and Gram negative bacteria is performed using the microdilution broth method as recommended by the National Committee for Clinical Laboratory Standards (Approved Standards M7-A5 2000). Mueller-Hinton broth is used for the enterobacteriaceae, staphylococci and enterococci. Streptococci are also tested in Mueller-Hinton broth supplemented with 5% horse blood (LHB). Test organisms include recent clinical isolates that are resistant to methicillin, penicillin and/or vancomycin. […].

SMILES | MIC [µg/mL]
CC(C)(C)c1ccc(-c2ccc(C3=C(O)/C(=C/c4cccc(C(F)(F)F)c4Cl)OC3=O)cc2)cc1 [Example 116] | < 0.125
CCOc1ccc(-c2ccc(C3=C(O)/C(=C/c4cccc(C(F)(F)F)c4Cl)OC3=O)cc2)cc1 [Example 117] | 0.5 (≈ 1.03 µM)
O=C1O/C(=C\c2cc(C(F)(F)F)ccc2F)C(O)=C1c1ccc(-c2ccccc2)cc1 [Example 118] | 4 (≈ 9.38 µM)
O=C1O/C(=C\c2cc(C(F)(F)F)ccc2F)C(O)=C1c1ccc(-c2ccccc2)c(F)c1 [Example 119] | 0.5 (≈ 1.13 µM)

Target: E. coli Uridine-diphosphate-N-acetvimuramoyl: L-alanine lipase, MurC (Escherichia coli, UniProt P17952)
Sequence (P17952 whole entry): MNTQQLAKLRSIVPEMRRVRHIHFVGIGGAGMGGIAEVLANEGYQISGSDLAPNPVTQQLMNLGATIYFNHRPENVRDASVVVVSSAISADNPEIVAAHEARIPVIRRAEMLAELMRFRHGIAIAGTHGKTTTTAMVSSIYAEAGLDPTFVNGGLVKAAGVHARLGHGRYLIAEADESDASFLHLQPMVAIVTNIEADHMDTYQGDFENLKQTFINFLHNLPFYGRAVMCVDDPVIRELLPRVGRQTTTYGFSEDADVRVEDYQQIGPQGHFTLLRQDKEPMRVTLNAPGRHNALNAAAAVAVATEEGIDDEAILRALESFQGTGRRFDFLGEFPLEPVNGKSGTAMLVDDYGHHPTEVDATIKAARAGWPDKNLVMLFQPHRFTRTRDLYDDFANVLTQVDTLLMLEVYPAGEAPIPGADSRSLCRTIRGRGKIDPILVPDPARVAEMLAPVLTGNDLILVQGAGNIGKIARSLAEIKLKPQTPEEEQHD
Assay: Inhibitory activity against MurC (E. coli)
Format: biochemical
Details: (E) E. coli enzyme
Protocol: S. aureus and E. coli Uridine-diphosphate-N-acetvimuramoyl: L-alanine lipase, MurC
The buffer is prepared from aqueous reagents with the following final concentrations: 83 mM Tris/HCl (pH 8.0), 50 mM MgC12, and 2 mM ATP.
(§3) Preparation of Enzyme Solution:
A 1 mg/mL stock solution of MurC is prepared in a buffer consisting of 20 mM Tris/HCl (pH 8.5) with 2.5 μM BME. The stock solution is further diluted with the buffer to give a final enzyme concentration of 100 μg/mL for the E. coli stock solution and 70 μg/mL for the S. aureus stock solution.
(§4) Preparation of Test Compound Solutions:
(§5) All test solutions are prepared in DMSO as 10 mg/mL, then diluted with 50 mM Tris/HCl (pH 8.5) to 100 μg/mL.
(§6) Preparation of Stop Solution:
The stop solution is prepared by stirring 1 part 4.2% ammonium molydbate in 4N HCl with 2 parts 0.045% malachite green for 30 min.
In this evaluation, the inhibitory activity of a test compound against MurC, the enzyme which catalyzes the third step of bacterial cell wall bioxynthesis is determined. Experiments are performed by adding 2.5 μl buffer, 2.5 μl 0.5M NH4SO2, 5 μl 2 μM L-Ala, 5 μl enzyme solution and 6.5 μl test compound solution to each well in a 96-well microplate. After a pre-incubation period of 10 mins. at 23° C., 3.75 μl of a 0.75 μM solution of UDP-MurNac is added to each well. Following an incubation period of 10 mins. at 37° C., 210 μl stop solution and 50 μl of a 34% w/v sodium citrate solution are added and color is allowed to develop for 10 mins. at 23° C. (Lanzetta et al., Analytical Biochemistry, 1979, 95) Optical density readings are taken at 660 nm using a Molecular Devices Spectra Max 250 with Soft Max software. Controls are performed using the same procedure and omitting the addition of UDP-MurNac.
Using these values the IC50 is determined by linear regression analysis.

SMILES | MurC IC50
O=C1O/C(=C\c2cc(C(F)(F)F)ccc2F)C(O)=C1c1ccc(-c2ccccc2)c(F)c1 [Example 119] | 2 (E) μg/mL

Same assay, conditions: (E) E. coli enzyme; read-out: MurC IC50 (converted)

SMILES | IC50 [µM]
CC(C)(C)c1ccc(-c2ccc(C3=C(O)/C(=C/c4cccc(C(F)(F)F)c4Cl)OC3=O)cc2)cc1 [Example 116] | > 50.1
CCOc1ccc(-c2ccc(C3=C(O)/C(=C/c4cccc(C(F)(F)F)c4Cl)OC3=O)cc2)cc1 [Example 117] | > 51.3
O=C1O/C(=C\c2cc(C(F)(F)F)ccc2F)C(O)=C1c1ccc(-c2ccccc2)cc1 [Example 118] | 44.6

Test system: enterococci
Assay: Minimum inhibitory concentration, microdilution broth method, enterococci
Format: cell-based
Details: Enterococcus faecalis, E. faecalis GC 2242; Mueller-Hinton broth, 18-22 hours at 35° C.; read-out: MIC E. faecalis GC 2242
Protocol: as §1, §2

SMILES | MIC [µg/mL]
CC(C)(C)c1ccc(-c2ccc(C3=C(O)/C(=C/c4cccc(C(F)(F)F)c4Cl)OC3=O)cc2)cc1 [Example 116] | 4 (≈ 8.02 µM)
CCOc1ccc(-c2ccc(C3=C(O)/C(=C/c4cccc(C(F)(F)F)c4Cl)OC3=O)cc2)cc1 [Example 117] | 8 (≈ 16.4 µM)
O=C1O/C(=C\c2cc(C(F)(F)F)ccc2F)C(O)=C1c1ccc(-c2ccccc2)cc1 [Example 118] | 16 (≈ 37.5 µM)
O=C1O/C(=C\c2cc(C(F)(F)F)ccc2F)C(O)=C1c1ccc(-c2ccccc2)c(F)c1 [Example 119] | 2 (≈ 4.5 µM)

Same assay, conditions: Enterococcus faecalis, E. faecalis GC 4555; Mueller-Hinton broth, 18-22 hours at 35° C.; read-out: MIC E. faecalis GC 4555

SMILES | MIC [µg/mL]
CC(C)(C)c1ccc(-c2ccc(C3=C(O)/C(=C/c4cccc(C(F)(F)F)c4Cl)OC3=O)cc2)cc1 [Example 116] | 4 (≈ 8.02 µM)
CCOc1ccc(-c2ccc(C3=C(O)/C(=C/c4cccc(C(F)(F)F)c4Cl)OC3=O)cc2)cc1 [Example 117] | 32 (≈ 65.7 µM)
O=C1O/C(=C\c2cc(C(F)(F)F)ccc2F)C(O)=C1c1ccc(-c2ccccc2)cc1 [Example 118] | 32 (≈ 75.1 µM)
O=C1O/C(=C\c2cc(C(F)(F)F)ccc2F)C(O)=C1c1ccc(-c2ccccc2)c(F)c1 [Example 119] | 2 (≈ 4.5 µM)

Test system: staphylococci
Assay: Minimum inhibitory concentration, microdilution broth method, staphylococci
Format: cell-based
Details: Staphylococcus aureus, S. aureus GC 1131; Mueller-Hinton broth, 18-22 hours at 35° C.; read-out: MIC S. aureus GC 1131
Protocol: as §1, §2

SMILES | MIC [µg/mL]
CC(C)(C)c1ccc(-c2ccc(C3=C(O)/C(=C/c4cccc(C(F)(F)F)c4Cl)OC3=O)cc2)cc1 [Example 116] | 8 (≈ 16 µM)
CCOc1ccc(-c2ccc(C3=C(O)/C(=C/c4cccc(C(F)(F)F)c4Cl)OC3=O)cc2)cc1 [Example 117] | 64 (≈ 131 µM)
O=C1O/C(=C\c2cc(C(F)(F)F)ccc2F)C(O)=C1c1ccc(-c2ccccc2)cc1 [Example 118] | 16 (≈ 37.5 µM)
O=C1O/C(=C\c2cc(C(F)(F)F)ccc2F)C(O)=C1c1ccc(-c2ccccc2)c(F)c1 [Example 119] | 2 (≈ 4.5 µM)

Same assay, conditions: Staphylococcus aureus, S. aureus GC 4543; Mueller-Hinton broth, 18-22 hours at 35° C.; read-out: MIC S. aureus GC 4543

SMILES | MIC [µg/mL]
CC(C)(C)c1ccc(-c2ccc(C3=C(O)/C(=C/c4cccc(C(F)(F)F)c4Cl)OC3=O)cc2)cc1 [Example 116] | 8 (≈ 16 µM)
CCOc1ccc(-c2ccc(C3=C(O)/C(=C/c4cccc(C(F)(F)F)c4Cl)OC3=O)cc2)cc1 [Example 117] | 32 (≈ 65.7 µM)
O=C1O/C(=C\c2cc(C(F)(F)F)ccc2F)C(O)=C1c1ccc(-c2ccccc2)cc1 [Example 118] | 16 (≈ 37.5 µM)
O=C1O/C(=C\c2cc(C(F)(F)F)ccc2F)C(O)=C1c1ccc(-c2ccccc2)c(F)c1 [Example 119] | 2 (≈ 4.5 µM)

Target: E. coli Uridine-diphosphate-N-acetylmuramoyl-L-alanine: D-glutamate liease, MurD (Escherichia coli, UniProt P14900)
Sequence (P14900 whole entry): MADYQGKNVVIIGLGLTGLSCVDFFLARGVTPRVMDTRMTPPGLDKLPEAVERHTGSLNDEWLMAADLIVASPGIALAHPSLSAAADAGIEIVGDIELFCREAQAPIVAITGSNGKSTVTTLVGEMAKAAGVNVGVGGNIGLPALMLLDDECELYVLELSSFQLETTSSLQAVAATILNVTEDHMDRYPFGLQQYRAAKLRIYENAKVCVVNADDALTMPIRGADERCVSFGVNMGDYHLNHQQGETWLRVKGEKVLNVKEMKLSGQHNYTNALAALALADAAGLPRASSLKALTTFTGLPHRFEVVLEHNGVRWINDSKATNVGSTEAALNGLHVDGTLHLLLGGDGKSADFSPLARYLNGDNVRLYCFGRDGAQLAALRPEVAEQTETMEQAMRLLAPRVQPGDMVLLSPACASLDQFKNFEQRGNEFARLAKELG
Assay: biochemical
Details: (E) E. coli enzyme
Protocol: S. aureus and E. coli Uridine-diphosphate-N-acetylmuramoyl-L-alanine: D-glutamate liease, MurD
The buffer is prepared from aqueous reagents with the following final concentrations: 83 mM Tris/HCl (pH 8.0), 50 mM MgCl2, and 2 mM ATP.
as §3, §4, §5, §6
In this evaluation, the inhibitory activity of a test compound against MurD, the enzyme which catalyzes the fourth step of bacterial cell wall biosynthesis is determined.

SMILES | IC50 [µM] | MurD IC50
CC(C)(C)c1ccc(-c2ccc(C3=C(O)/C(=C/c4cccc(C(F)(F)F)c4Cl)OC3=O)cc2)cc1 [Example 116] | > 50.1 | 
CCOc1ccc(-c2ccc(C3=C(O)/C(=C/c4cccc(C(F)(F)F)c4Cl)OC3=O)cc2)cc1 [Example 117] | > 51.3 | 
O=C1O/C(=C\c2cc(C(F)(F)F)ccc2F)C(O)=C1c1ccc(-c2ccccc2)cc1 [Example 118] | > 58.6 | 
O=C1O/C(=C\c2cc(C(F)(F)F)ccc2F)C(O)=C1c1ccc(-c2ccccc2)c(F)c1 [Example 119] |  | 6 (E) μg/mL

Target: E. coli Enopyruvyl-UPD-N-acetylglucosamine reductase, Mur B (Escherichia coli, UniProt P08373)
Sequence (P08373 whole entry): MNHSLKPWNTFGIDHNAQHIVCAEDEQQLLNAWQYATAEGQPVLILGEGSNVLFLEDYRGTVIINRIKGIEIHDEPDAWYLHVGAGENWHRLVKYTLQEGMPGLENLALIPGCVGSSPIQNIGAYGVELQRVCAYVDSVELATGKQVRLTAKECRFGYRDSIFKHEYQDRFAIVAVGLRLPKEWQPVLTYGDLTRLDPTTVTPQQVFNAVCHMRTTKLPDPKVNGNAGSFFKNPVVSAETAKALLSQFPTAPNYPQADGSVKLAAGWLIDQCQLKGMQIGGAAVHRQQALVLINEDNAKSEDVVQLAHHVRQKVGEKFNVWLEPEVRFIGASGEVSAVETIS
Assay: biochemical
Details: (E) E. coli enzyme
Protocol: S. aureus and E. coli Enopyruvyl-UPD-N-acetylglucosamine reductase, Mur B
Preparation of Tris/BME buffer:
Dilute 17.5 uL of aqueous 5 mM BME (2-mercaptoethanol) to 50 mL with 50 mM Tris/HCl (pH 8.0).
as §3
Dilute aqueous MurB stock solution (0.94 mg/mL) with 200 parts 50 mM Tris/2-BME buffer.
Synthesis of Substrate for MurB (MurA Product EP-UDP-GluNAc):
A mixture of 13 mg UDP-N-acetylglucosamine and 5.5 mg phosphoenolpyruvate are dissolved in 10 mL Tris/BME buffer forming 2 mM concentrations of each reagent in solution.
Preparation of Assay Buffer:
The assay buffer is prepared in water from reagents with the following final concentrations: 100 mM Tris/HCl (pH 8.0), 200 μM NADPH, 100 μM MurB substrate, 10 μM 2-mercaptoethanol, and 10 μM KCl.
Experiments are performed by adding 20 μL of a solution of test compound in a mixture of dimethylsulfoxide and water and 30 μL of enzyme solution to a well. After a pre-incubation period of 20 mins. at 23° C., 50 μL of Tris/BME buffer and 100 μL of assay buffer are added. […] Controls are performed using the same procedure and employing 20 μL of a blank dimethylsulfonide and solvent mixture in place of the test compound solution.
Using these values, the IC50 for each test compound is determined by linear regression analysis.

SMILES | MurB IC50
O=C1O/C(=C\c2cc(C(F)(F)F)ccc2F)C(O)=C1c1ccc(-c2ccccc2)c(F)c1 [Example 119] | 1 (E) μg/mL

Same assay, conditions: (E) E. coli enzyme; read-out: MurB IC50 (converted)

SMILES | IC50 [µM]
CC(C)(C)c1ccc(-c2ccc(C3=C(O)/C(=C/c4cccc(C(F)(F)F)c4Cl)OC3=O)cc2)cc1 [Example 116] | 8.02
CCOc1ccc(-c2ccc(C3=C(O)/C(=C/c4cccc(C(F)(F)F)c4Cl)OC3=O)cc2)cc1 [Example 117] | 14.4
O=C1O/C(=C\c2cc(C(F)(F)F)ccc2F)C(O)=C1c1ccc(-c2ccccc2)cc1 [Example 118] | 42.2

Target: E. coli UDP-N-acetylglucosamine enolpyruvoyl transferase, MurA (Escherichia coli, UniProt P0A749)
Sequence (P0A749 whole entry): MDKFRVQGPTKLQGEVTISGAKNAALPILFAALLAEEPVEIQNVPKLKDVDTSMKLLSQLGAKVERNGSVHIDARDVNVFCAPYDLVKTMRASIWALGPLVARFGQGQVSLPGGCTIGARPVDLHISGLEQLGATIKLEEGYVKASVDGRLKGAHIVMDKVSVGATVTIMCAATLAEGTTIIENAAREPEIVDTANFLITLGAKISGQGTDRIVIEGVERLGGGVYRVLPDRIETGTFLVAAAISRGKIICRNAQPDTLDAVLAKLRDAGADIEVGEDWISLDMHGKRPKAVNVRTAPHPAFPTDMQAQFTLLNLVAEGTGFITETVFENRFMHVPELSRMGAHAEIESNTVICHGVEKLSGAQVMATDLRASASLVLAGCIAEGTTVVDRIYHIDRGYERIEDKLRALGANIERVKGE
Assay: biochemical
Details: (E) E. coli enzyme
Protocol: Evaluation of the Inhibitory Activity of Test Compounds Against Enzymes which Catalyze Bacterial Cell Wall Biosynthesis
S. aureus and E. coli UDP-N-acetylglucosamine enolpyruvoyl transferase, MurA
as §3
The enzyme solution is prepared by admixing the following: 50 mM Tris/HCl pH 8.0, […] 1 M Tris, 5 mM DTT, […] 1 M DTT, 20% Glycerol 4 ml 50% Glycerol, add water to 10 ml.
as §6
A procedure similar to that described by C. […] Experiments are performed by adding a solution of test compound (in a mixture of dimethylsulfoxide and water) and an enzyme solution to a well. After a pre-incubation period of 10 mintues at 37° C., Tris/BME buffer and assay buffer are added. A start point optical density (OD0) reading is taken at 340 nm immediately following the addition of assay buffer. After incubation for 1 hr at 37° C., the stop solution is added and the color is allowed to develop for 30 minutes.

SMILES | IC50 [µM] | MurA IC50
CC(C)(C)c1ccc(-c2ccc(C3=C(O)/C(=C/c4cccc(C(F)(F)F)c4Cl)OC3=O)cc2)cc1 [Example 116] | 6.01 | 
CCOc1ccc(-c2ccc(C3=C(O)/C(=C/c4cccc(C(F)(F)F)c4Cl)OC3=O)cc2)cc1 [Example 117] | 20.5 | 
O=C1O/C(=C\c2cc(C(F)(F)F)ccc2F)C(O)=C1c1ccc(-c2ccccc2)cc1 [Example 118] | 35.2 | 
O=C1O/C(=C\c2cc(C(F)(F)F)ccc2F)C(O)=C1c1ccc(-c2ccccc2)c(F)c1 [Example 119] |  | 1 (E) μg/mL
